The target of data set [1] is T1, glucocorticoid receptor (GR) (Homo sapiens, UniProt P04150).
T1 sequence (P04150 1-777): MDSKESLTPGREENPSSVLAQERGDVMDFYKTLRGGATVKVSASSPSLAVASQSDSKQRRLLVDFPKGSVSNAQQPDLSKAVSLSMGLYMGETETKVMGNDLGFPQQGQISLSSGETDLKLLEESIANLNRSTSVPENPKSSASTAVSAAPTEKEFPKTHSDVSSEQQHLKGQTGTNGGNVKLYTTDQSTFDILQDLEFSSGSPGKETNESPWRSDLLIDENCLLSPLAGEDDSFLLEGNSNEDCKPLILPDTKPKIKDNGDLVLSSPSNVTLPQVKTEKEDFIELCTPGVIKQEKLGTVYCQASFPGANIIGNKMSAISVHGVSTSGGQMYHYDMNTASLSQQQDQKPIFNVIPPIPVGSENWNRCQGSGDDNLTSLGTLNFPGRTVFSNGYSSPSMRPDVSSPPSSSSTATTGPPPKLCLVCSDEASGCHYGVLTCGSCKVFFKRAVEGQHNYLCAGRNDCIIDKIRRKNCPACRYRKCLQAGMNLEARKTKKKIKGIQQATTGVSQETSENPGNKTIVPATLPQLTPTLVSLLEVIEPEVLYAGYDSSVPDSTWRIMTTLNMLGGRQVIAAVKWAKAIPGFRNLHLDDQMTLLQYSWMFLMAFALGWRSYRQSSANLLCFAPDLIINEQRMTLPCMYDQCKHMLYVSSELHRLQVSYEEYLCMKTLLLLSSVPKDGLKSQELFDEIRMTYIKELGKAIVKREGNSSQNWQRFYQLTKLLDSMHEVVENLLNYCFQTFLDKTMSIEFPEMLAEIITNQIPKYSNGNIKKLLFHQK
In words: GR gene reporter assay in AZ-GR cells. Particulars: for IC50: in presence of DEX 100 nM. The class given is cell-based. How it is done:
Transcriptional activity of GR was assessed in human gene reporter cell line AZ-GR incubated for 24 h with tested compounds. […] The vehicle was DMSO (0.1% v/v). […] Treatments were performed in triplicates.

For data set [2], the target named is T2, aryl hydrocarbon receptor (AhR) (Homo sapiens, UniProt P35869).
T2 sequence (P35869 11-848): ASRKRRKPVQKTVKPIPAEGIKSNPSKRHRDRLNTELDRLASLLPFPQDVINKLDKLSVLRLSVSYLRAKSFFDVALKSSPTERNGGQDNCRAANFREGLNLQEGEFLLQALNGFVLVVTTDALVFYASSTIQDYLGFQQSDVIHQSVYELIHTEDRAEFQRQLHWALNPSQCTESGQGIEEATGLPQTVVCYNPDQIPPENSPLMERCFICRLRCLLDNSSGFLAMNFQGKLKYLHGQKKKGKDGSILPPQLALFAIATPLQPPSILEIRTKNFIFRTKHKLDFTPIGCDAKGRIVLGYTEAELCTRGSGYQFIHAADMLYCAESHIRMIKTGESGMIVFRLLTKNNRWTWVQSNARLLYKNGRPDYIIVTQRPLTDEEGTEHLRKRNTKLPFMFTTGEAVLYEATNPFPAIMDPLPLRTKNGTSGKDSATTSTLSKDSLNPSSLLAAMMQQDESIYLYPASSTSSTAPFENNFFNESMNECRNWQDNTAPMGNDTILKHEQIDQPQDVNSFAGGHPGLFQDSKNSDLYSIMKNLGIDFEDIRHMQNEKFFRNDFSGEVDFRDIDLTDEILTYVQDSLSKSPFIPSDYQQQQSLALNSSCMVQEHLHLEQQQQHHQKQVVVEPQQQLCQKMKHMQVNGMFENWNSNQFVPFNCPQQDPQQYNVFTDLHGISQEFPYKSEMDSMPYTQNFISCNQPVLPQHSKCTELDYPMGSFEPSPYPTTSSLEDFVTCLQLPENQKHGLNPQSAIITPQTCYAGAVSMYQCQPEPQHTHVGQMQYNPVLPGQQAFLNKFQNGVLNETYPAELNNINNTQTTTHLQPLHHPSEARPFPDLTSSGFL
In words: cell-based.
Method: (§5) A stably transfected gene reporter cell line AZ-AHR, derived from human hepatoma HepG2 cells transfected with a construct containing several AhR binding sites upstream of a luciferase reporter gene, was used for assessment of AhR transcriptional activity [20].
(§6) Transcriptional activity of AhR was assessed in human gene reporter cell line AZ-AHR incubated for 24 h with tested compounds.
(§7) AZ-AHR cells were seeded in 96-well plates and stabilized for 16 h and then incubated for 24 h with enantiopure forms of atorvastatin, rosuvastatin and fluvastatin in concentration ranging from 10^−10 M to 10^−4 M in the absence (agonist mode–upper panels) or presence (antagonist mode–lower panels) of dioxin (TCDD; 5 nM). The vehicle was DMSO (0.1% v/v). After the treatments, cells were lysed and luciferase activity was measured. Treatments were performed in triplicates. Data are expressed as a fold induction of luciferase activity over control cells (agonist mode) or as a percentage of maximal activation attained by TCDD (antagonist mode). The values of EC50 and IC50 from n independent cell passages were calculated where appropriate and the average values are indicated in plots. Representative gene reporter assays are shown.

In data set [3] the target is T3, pregnane X receptor (PXR) (Homo sapiens, UniProt O75469).
T3 sequence (O75469 1-434): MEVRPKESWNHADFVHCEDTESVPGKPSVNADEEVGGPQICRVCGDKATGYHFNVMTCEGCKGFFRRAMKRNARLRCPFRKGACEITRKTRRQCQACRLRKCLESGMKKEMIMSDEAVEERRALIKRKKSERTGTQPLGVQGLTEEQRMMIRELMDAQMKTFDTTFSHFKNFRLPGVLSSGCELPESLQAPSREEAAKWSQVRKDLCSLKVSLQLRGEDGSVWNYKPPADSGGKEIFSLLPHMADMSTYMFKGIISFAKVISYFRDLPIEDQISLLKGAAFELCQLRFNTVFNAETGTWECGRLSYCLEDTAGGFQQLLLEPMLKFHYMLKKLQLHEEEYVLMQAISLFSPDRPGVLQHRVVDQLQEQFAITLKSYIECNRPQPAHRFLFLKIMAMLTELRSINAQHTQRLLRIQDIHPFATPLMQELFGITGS
Particulars: for effect on rifampicin-inducible PXR transcriptional activity, in words: antagonist mode, RIF 10 μM, 24 h; for rifampicin-inducible luciferase activity, minimum of U-shaped curve: with RIF 10 μM, concentrations range 10^−8 M-10^−6 M.

The target in data set [4] is T2, aryl hydrocarbon receptor (AhR). In words: AhR gene reporter assay in AZ-AHR cells. The conditions noted are these: for IC50: AhR antagonist IC50, antagonist mode, in presence of TCDD 5 nM; for IC50 / effect on AhR-dependent luciferase activity (agonist mode), in words: 24 h.
Method: as §5, §6, §7
The next data set has as its system CYP1A1 mRNA. In words: CYP1A1 mRNA (qRT-PCR) in primary human hepatocytes. The class given is cell-based. The conditions noted are these: 5 nM. How it is done: (§1) Cells were cultured in serum-free medium.
(§2) Measurements were performed in triplicates.

The test system of another data set is CYP1A2 protein. Nature of the data set: CYP1A2 protein (Simple Western) in primary human hepatocytes. The conditions noted are these: 5 nM. The class given is cell-based. The method, then: as §1
The test system of another data set is CYP1A2 mRNA. Nature of the data set: CYP1A2 mRNA (qRT-PCR) in primary human hepatocytes. Particulars: 5 nM. The class given is cell-based. The method, then:
as §1, §2

In a further data set the test system is CYP1A1 protein. Nature of the data set: CYP1A1 protein (Simple Western) in primary human hepatocytes. Particulars: 5 nM. The class given is cell-based. The method, then: as §1
Data set [5] is described as follows: MTT cytotoxicity test in AZ-AHR cells. The class given is cell-based. The conditions noted are these: human. How it is done: (§3) Prior to gene reporter assays, we examined the cytotoxicity of tested compounds in AZ-AHR, AZ-GR and LS180 cell lines. For this purpose, the cells were incubated for 24 h with individual enantiomers of atorvastatin, fluvastatin and rosuvastatin at concentrations ranging from 100 pM to 100 μM. The vehicle was DMSO (0.1% v/v). After the treatment, a conventional MTT test was performed and the values of IC50 were calculated.
(§4) Fig 2 Cytotoxicity of statin enantiomers in human cancer cell lines. […] After the treatment, a conventional MTT test was performed and absorbance was measured at 540 nm. Treatments were performed in triplicates.

Data set [6] in a line: MTT cytotoxicity test in AZ-GR cells. The class given is cell-based. The conditions noted are these: human, AZ-GR cells (HeLa-derived GR luciferase reporter cell line). How it is done:
as §3, §4

Data set [7] in a line: MTT cytotoxicity test in LS180 cells. The class given is cell-based. Particulars: human, LS180 colon adenocarcinoma cells. The method, then:
as §3, §4

For a further data set, the system named is CYP2A6 protein. Particulars: 10 μM.
The test system of a further data set is CYP2B6 protein. Particulars: 10 μM.
Another data set has as its system CYP2B6 mRNA. Particulars: 10 μM.
The subject of another data set is CYP2A6 mRNA. The conditions noted are these: 10 μM.
A further data set relates to CYP3A4 protein. The conditions noted are these: HH59, HH61, HH63; 48 h.

Molecules are shown by their SMILES. Where two headings read alike, the source gives them in different places.

Results on eight compounds are retold here after paper PMC4569258.

Method for CYP2A6 protein: (§8) Total protein extracts were prepared from cells cultured on 6-well plates. Cells were washed twice with ice-cold PBS and scraped into 1 ml of PBS. The suspension was centrifuged (4500 rpm/5 min/4°C) and the pellet was resuspended in 150 μl of ice-cold lysis buffer (150 mM NaCl; 10 mM Tris pH 7.2; 0.1% (w/v) SDS; anti-protease cocktail, 1% (v/v) Triton X-100; anti-phosphatase cocktail, 1% (v/v) sodium deoxycholate; 5 mM EDTA). The mixture was vortexed and incubated for 10 min on ice and then centrifuged (15000 rpm/13 min/4°C). Supernatant was collected and the protein content was determined by the Bradford reagent.
(§9) All reagents used for running the simple western by Sally Sue ^TM were obtained from ProteinSimple (San Jose, California) and prepared according to manufacturer’s recommendations (http://www.proteinsimple.com/sally_sue.html). […] Antibody diluent, goat anti-rabbit secondary antibody, and goat anti-mouse secondary antibody were purchased from ProteinSimple. The capillaries, containing a proprietary UV-activated chemical linked reagent and 384-well plates were obtained from ProteinSimple. All samples and reagents were prepared according to the recommended ProteinSimple manual. Target proteins were identified using primary antibodies and immunoprobed using a horseradish peroxidase-conjugated secondary antibody and chemiluminescent substrate. The resulting chemiluminescent signal was detected and quantified by the Compass Software version 2.6.5.0 (ProteinSimple). For quantitative data analysis, the CYPs signals were normalized to β-actin as a loading control.
Method for CYP2B6 protein: as §8, §9
Method for CYP3A4 protein: as §8
All reagents used for running the simple western by Sally Sue ^TM were obtained from ProteinSimple (San Jose, California) and prepared according to manufacturer’s recommendations (http://www.proteinsimple.com/sally_sue.html). […] Antibody diluent, goat anti-rabbit secondary antibody, and goat anti-mouse secondary antibody were purchased from ProteinSimple. The capillaries, containing a proprietary UV-activated chemical linked reagent and 384-well plates were obtained from ProteinSimple. […] The resulting chemiluminescent signal was detected and quantified by the Compass Software version 2.6.5.0 (ProteinSimple). For quantitative data analysis, the CYPs signals were normalized to β-actin as a loading control.

Take `CC(C)c1c(C(=O)Nc2ccccc2)c(-c2ccccc2)c(-c2ccc(F)cc2)n1CC[C@@H](O)C[C@@H](O)CC(=O)O` [3R5R-atorvastatin]: the “effect on dexamethasone-inducible transcriptional activity of GR, in words” value in data set [1] (antagonist mode, DEX 100 nM, 24 h) is listed as “decreased”.

With `CC(C)c1nc(N(C)S(C)(=O)=O)nc(-c2ccc(F)cc2)c1C=CC(O)CC(O)CC(=O)O` (stereo not shown) [3S5S-rosuvastatin], the concentration for half-maximal inhibition (IC50) in data set [1] (antagonist mode, 24 h) is above 100 µM. The same compound yielded an EC50 in [2] of 17.5 ± 0.4 µM. Further, in data set [3], the “effect on rifampicin-inducible PXR transcriptional activity, in words” value was “U-shaped curve” and the “rifampicin-inducible luciferase activity, minimum of U-shaped curve” value is recorded as 60 % of rifampicin value. The half-inhibitory concentration (IC50) in data set [4] was above 100 µM. In data set [4] (agonist mode), the “efficacy of AhR activation, % of induction attained by TCDD” value is “about 0.1%” and the “effect on AhR-dependent luciferase activity (agonist mode), in words” value was “dose-dependently increased luciferase activity”.

Consider `Clc1cc2c(cc1Cl)Oc1cc(Cl)c(Cl)cc1O2` [TCDD, 2,3,7,8-tetrachlorodibenzo-p-dioxin], for which the “induction of CYP1A1 mRNA” value amounted to 98 fold in the data set with CYP1A1 mRNA (culture HH59, 24 h); 339 fold in the data set on CYP1A1 mRNA (culture HH61, 24 h); 278 fold in the data set on CYP1A1 mRNA (culture HH63, 24 h). For the same compound, the “induction of CYP1A2 protein” value in the data set on CYP1A2 protein (culture HH59, 48 h) was 19 fold; in the data set on CYP1A2 protein (culture HH61, 48 h), 83 fold; with CYP1A2 protein (culture HH63, 48 h), 50 fold. Further, the “induction of CYP1A2 mRNA” value in the data set on CYP1A2 mRNA (culture HH59, 24 h) is on record as 110 fold; in the data set with CYP1A2 mRNA (culture HH61, 24 h), 143 fold; in the data set with CYP1A2 mRNA (culture HH63, 24 h) it was 45 fold. In data set [4] (5 nM, eight consecutive passages, vs DMSO-treated cells), the “average induction of AhR-dependent luciferase activity” value was 1107 fold. Besides, the “induction of CYP1A1 protein” value with CYP1A1 protein (culture HH59, 48 h) was 35 fold; with CYP1A1 protein (culture HH61, 48 h), 220 fold; in the data set on CYP1A1 protein (culture HH63, 48 h) it was 35 fold.

For `CC(C)n1c(C=CC(O)CC(O)CC(=O)O)c(-c2ccc(F)cc2)c2ccccc21` (stereo not shown) [3S5S-fluvastatin], the half-maximal inhibitory concentration (IC50) at 24 h in [5], in [6] and in [7] was above 100 µM each time. In data set [2], this compound yielded a concentration giving a half-maximal response (EC50) of 14.7 ± 0.9 µM. The “efficacy: average induction of PXR luciferase activity” value in data set [3] (100 μM concentration, agonist mode) is “around 3 fold”. The IC50 in data set [4] was above 100 µM. In addition, in data set [4] (agonist mode), the “effect on AhR-dependent luciferase activity (agonist mode), in words” value was “slightly increased luciferase activity”.

As for `CO[C@H]1/C=C/O[C@@]2(C)Oc3c(C)c(O)c4c(O)c(c(/C=N/N5CCN(C)CC5)c(O)c4c3C2=O)NC(=O)/C(C)=C\C=C\[C@H](C)[C@H](O)[C@@H](C)[C@@H](O)[C@@H](C)[C@H](OC(C)=O)[C@@H]1C` [rifampicin], the “induction of CYP2A6 protein” value stood at 4.8 fold in the data set on CYP2A6 protein (culture HH59, 48 h); 7.3 fold in the data set on CYP2A6 protein (culture HH61, 48 h); 2.3 fold in the data set with CYP2A6 protein (culture HH63, 48 h). In addition, the “induction of CYP2B6 protein” value in the data set on CYP2B6 protein (culture HH59, 48 h) is 8.4 fold; with CYP2B6 protein (culture HH61, 48 h) it was 5.9 fold; in the data set with CYP2B6 protein (culture HH63, 48 h), 7.7 fold. For the same compound, the “induction of CYP2B6 mRNA” value with CYP2B6 mRNA (culture HH59, 24 h) is on record as 5.8 fold; with CYP2B6 mRNA (culture HH61, 24 h), 16 fold; with CYP2B6 mRNA (culture HH63, 24 h), 6.9 fold. Besides, the “induction of CYP2A6 mRNA” value in the data set with CYP2A6 mRNA (culture HH59, 24 h) worked out at 2.4 fold; in the data set on CYP2A6 mRNA (culture HH61, 24 h), 5.2 fold; with CYP2A6 mRNA (culture HH63, 24 h), 7.1 fold.

`C[C@@H]1C[C@H]2[C@@H]3CCC4=CC(=O)C=C[C@]4(C)[C@@]3(F)[C@@H](O)C[C@]2(C)[C@@]1(O)C(=O)CO` [dexamethasone]: in data set [1] (100 nM, eight consecutive passages, vs DMSO-treated cells), the “average induction of GR-dependent luciferase activity” value came to 32 fold.

On to `CC(C)c1nc(N(C)S(C)(=O)=O)nc(-c2ccc(F)cc2)c1C=CC(O)CC(O)CC(=O)O` (stereo not shown) [3R5R-rosuvastatin, 3R5R- rosuvastatin], for which the concentration giving a half-maximal response (EC50) in data set [1] (agonist mode, 24 h) was above 100 µM; in data set [2], above 100 µM. Further, the 50% inhibitory concentration (IC50) was above 100 µM in data set [1] (antagonist mode, 24 h) and above 100 µM in data set [4]. The half-inhibitory concentration (IC50) at 24 h in data set [5], in data set [6] and in [7] was above 100 µM throughout. For the same compound, in data set [3], the “effect on rifampicin-inducible PXR transcriptional activity, in words” value is listed as “U-shaped curve”. Further, the “rifampicin-inducible luciferase activity, minimum of U-shaped curve” value in data set [3] is 60 % of rifampicin value.

On to `CC(C)c1nc(N(C)S(C)(=O)=O)nc(-c2ccc(F)cc2)c1C=CC(O)CC(O)CC(=O)O` (stereo not shown) [3S5R-rosuvastatin, 3S5R- rosuvastatin], for which the IC50 was above 100 µM in [1] (antagonist mode, 24 h) and above 100 µM in data set [4]. The compound further showed an EC50 in data set [2] above 100 µM. Also, the “induction of CYP3A4 protein, in words” value in the data set on CYP3A4 protein is “significant induction of CYP3A4 protein”. Further, the “effect on rifampicin-inducible PXR transcriptional activity, in words” value in data set [3] is “not influenced”.
